Measured values from PubChem BioAssay AID248 (DTP/NCI, 2004).
Where “and” joins values, the source holds several entries; their conditions need not be identical. Equal values may be shown once. Toxic doses and inconclusive results are not listed. Cut-off read from the data, not from the text of the source: active = T/C of 150% or more; inactive = T/C below 125%.

Tested on: L1210 leukemia ip in BDF1 mice, survival T/C
Experiment: NCI In Vivo Anticancer Drug Screen. Data for tumor model L1210 Leukemia (intraperitoneal) in B6D2F1 (BDF1) mice
Conditions: endpoint: mean survival time, higher = longer survival
Method in brief: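 Tumor was transplanted into mice, which were then dosed with test compound or vehicle alone. Survival was recorded for each group, and the treated figure was expressed relative to the control figure.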

[1] = dose: 100.0 mg/kg/injection, schedule: Q01DX009 (ip), vehicle: saline with Tween-80
[2] = dose: 100.0 mg/kg/injection, schedule: Q04DX002 (ip), vehicle: Klucel (hydroxypropylcellulose) (HPC)
[3] = dose: 200.0 mg/kg/injection, schedule: Q04DX002 (ip), vehicle: Klucel (hydroxypropylcellulose) (HPC)

Measured: T/C

CC(=O)NNC(=O)c1ccccn1
inactive: dose: 4.0 mg/kg/injection, schedule: Q03HX024 (ip), vehicle: saline 109 % of control | dose: 8.0 mg/kg/injection, schedule: Q03HX008 (ip), vehicle: saline 96 % of control | dose: 8.0 mg/kg/injection, schedule: Q03HX016 (ip), vehicle: saline 111 % of control | dose: 8.0 mg/kg/injection, schedule: Q03HX024 (ip), vehicle: saline 105 % of control | dose: 16.0 mg/kg/injection, schedule: Q03HX008 (ip), vehicle: saline 105 % of control | dose: 16.0 mg/kg/injection, schedule: Q03HX016 (ip), vehicle: saline 98 % of control | dose: 16.0 mg/kg/injection, schedule: Q03HX024 (ip), vehicle: saline 104 % of control | dose: 32.0 mg/kg/injection, schedule: Q01DX009 (ip), vehicle: saline 104 % of control | dose: 32.0 mg/kg/injection, schedule: Q01DX009 (oral), vehicle: saline 102 % of control | dose: 32.0 mg/kg/injection, schedule: Q03HX008 (ip), vehicle: saline 103 % of control | dose: 32.0 mg/kg/injection, schedule: Q03HX016 (ip), vehicle: saline 104 % of control | dose: 32.0 mg/kg/injection, schedule: Q03HX024 (ip), vehicle: saline 108 % of control | dose: 32.0 mg/kg/injection, schedule: Q04DX003 (ip), vehicle: saline 108 % of control | dose: 64.0 mg/kg/injection, schedule: Q01DX001 (ip), vehicle: saline 102 % of control | dose: 64.0 mg/kg/injection, schedule: Q01DX001 (oral), vehicle: saline 106 % of control | dose: 64.0 mg/kg/injection, schedule: Q01DX009 (ip), vehicle: saline 108 % of control | dose: 64.0 mg/kg/injection, schedule: Q01DX009 (oral), vehicle: saline 114 % of control | dose: 64.0 mg/kg/injection, schedule: Q03HX008 (ip), vehicle: saline 109 % of control | dose: 64.0 mg/kg/injection, schedule: Q03HX016 (ip), vehicle: saline 111 % of control | dose: 64.0 mg/kg/injection, schedule: Q03HX024 (ip), vehicle: saline 117 % of control | dose: 64.0 mg/kg/injection, schedule: Q04DX003 (ip), vehicle: saline 100 % of control | dose: 64.0 mg/kg/injection, schedule: Q08DX002 (ip), vehicle: saline 104 % of control | dose: 75.0 mg/kg/injection, schedule: Q01DX Z (ip), vehicle: water 95 % of control and 105 % of control | dose: 100.0 mg/kg/injection, schedule: Q01DX Z (ip), vehicle: water 96 % of control and 103 % of control | dose: 128.0 mg/kg/injection, schedule: Q01DX001 (ip), vehicle: saline 100 % of control | dose: 128.0 mg/kg/injection, schedule: Q01DX001 (oral), vehicle: saline 108 % of control | dose: 128.0 mg/kg/injection, schedule: Q01DX009 (ip), vehicle: saline 124 % of control | dose: 128.0 mg/kg/injection, schedule: Q01DX009 (oral), vehicle: saline 119 % of control | dose: 128.0 mg/kg/injection, schedule: Q04DX003 (ip), vehicle: saline 103 % of control | dose: 128.0 mg/kg/injection, schedule: Q08DX002 (ip), vehicle: saline 103 % of control | dose: 150.0 mg/kg/injection, schedule: Q01DX Z (ip), vehicle: water 105 % of control and 89 % of control | dose: 256.0 mg/kg/injection, schedule: Q01DX001 (ip), vehicle: saline 109 % of control | dose: 256.0 mg/kg/injection, schedule: Q01DX001 (oral), vehicle: saline 108 % of control | dose: 256.0 mg/kg/injection, schedule: Q01DX009 (ip), vehicle: saline 103 % of control | dose: 256.0 mg/kg/injection, schedule: Q04DX003 (ip), vehicle: saline 105 % of control | dose: 256.0 mg/kg/injection, schedule: Q08DX002 (ip), vehicle: saline 109 % of control

CCOC(=O)c1ccc(NC(=O)N(C2CCCCC2)C2CCCCC2)cc1
inactive: dose: 100.0 mg/kg/injection, schedule: Q01DX001 (ip), vehicle: saline with Tween-80 86 % of control | [1] 101 % of control | dose: 100.0 mg/kg/injection, schedule: Q04DX002 (ip), vehicle: saline with Tween-80 103 % of control and 90 % of control | dose: 200.0 mg/kg/injection, schedule: Q01DX001 (ip), vehicle: saline with Tween-80 86 % of control | dose: 200.0 mg/kg/injection, schedule: Q01DX009 (ip), vehicle: saline with Tween-80 92 % of control | dose: 200.0 mg/kg/injection, schedule: Q04DX002 (ip), vehicle: saline with Tween-80 94 % of control | dose: 200.0 mg/kg/injection, schedule: Q04DX003 (ip), vehicle: saline with Tween-80 94 % of control | dose: 400.0 mg/kg/injection, schedule: Q01DX001 (ip), vehicle: saline with Tween-80 93 % of control | dose: 400.0 mg/kg/injection, schedule: Q01DX009 (ip), vehicle: saline with Tween-80 101 % of control | dose: 400.0 mg/kg/injection, schedule: Q04DX002 (ip), vehicle: saline with Tween-80 94 % of control and 90 % of control | dose: 400.0 mg/kg/injection, schedule: Q04DX003 (ip), vehicle: saline with Tween-80 91 % of control

O=C(CCCc1ccc(N(CCCl)CCCl)cc1)NC1CCCC1
inactive: dose: 4.0 mg/kg/injection, schedule: Q12HX018 (ip), vehicle: other 103 % of control | dose: 6.0 mg/kg/injection, schedule: Q12HX018 (ip), vehicle: other 98 % of control | dose: 8.0 mg/kg/injection, schedule: Q12HX018 (ip), vehicle: other 103 % of control

CCN(CC)CCCC(C)NCCCN (configuration not stated)
inactive: dose: 50.0 mg/kg/injection, schedule: Q01DX009 (ip), vehicle: saline 94 % of control | dose: 100.0 mg/kg/injection, schedule: Q01DX009 (ip), vehicle: saline 100 % of control and 106 % of control | dose: 100.0 mg/kg/injection, schedule: Q04DX003 (ip), vehicle: saline 90 % of control | dose: 200.0 mg/kg/injection, schedule: Q01DX009 (ip), vehicle: saline 104 % of control and 92 % of control | dose: 200.0 mg/kg/injection, schedule: Q04DX003 (ip), vehicle: saline 90 % of control

Nc1nc(N)c(CCCOc2ccccc2)c(N)n1
inactive: dose: 100.0 mg/kg/injection, schedule: Q04DX002 (ip), vehicle: saline 105 % of control | dose: 200.0 mg/kg/injection, schedule: Q04DX002 (ip), vehicle: saline 105 % of control

COc1cc(/C=C2/N=C(C)OC2=O)cc(Cl)c1OC
inactive: dose: 100.0 mg/kg/injection, schedule: Q01DX001 (ip), vehicle: saline 87 % of control | dose: 200.0 mg/kg/injection, schedule: Q01DX001 (ip), vehicle: saline 90 % of control | dose: 400.0 mg/kg/injection, schedule: Q01DX001 (ip), vehicle: saline 87 % of control

O=C(O)/C=C/C(=O)Nc1ccc(Br)c(Cl)c1
inactive: [1] 86 % of control

CC(=O)NC1C(OCC(NC(=O)OCc2ccccc2)C(=O)NC(CC(=O)OCc2ccccc2)C(=O)OCc2ccccc2)OC(COC(C)=O)C(OC(C)=O)C1OC(C)=O (configuration not stated)
inactive: dose: 50.0 mg/kg/injection, schedule: Q04DX002 (ip), vehicle: Klucel (hydroxypropylcellulose) (HPC) 97 % of control | [2] 97 % of control | [3] 87 % of control

CONS(=O)c1ccc(Cl)cc1 (configuration not stated)
inactive: [2] 96 % of control | [3] 92 % of control | dose: 400.0 mg/kg/injection, schedule: Q04DX002 (ip), vehicle: Klucel (hydroxypropylcellulose) (HPC) 108 % of control
